Source: publication doi:10.1101/2025.02.22.639610v1, “Excavating Podocyte-Protective Targets of phloroglucinol-terpene hybrids Utilizing AI Models and Omics Analysis” (biorxiv, 2025)

Target: T1, EGFR^WT kinase (Homo sapiens, UniProt P00533)
T1 construct: commercial wild-type EGFR kinase (Sigma Aldrich)
Test: HTRF KinEASE-TK kinase assay
Type: biochemical

T1 sequence (P00533 25-1210): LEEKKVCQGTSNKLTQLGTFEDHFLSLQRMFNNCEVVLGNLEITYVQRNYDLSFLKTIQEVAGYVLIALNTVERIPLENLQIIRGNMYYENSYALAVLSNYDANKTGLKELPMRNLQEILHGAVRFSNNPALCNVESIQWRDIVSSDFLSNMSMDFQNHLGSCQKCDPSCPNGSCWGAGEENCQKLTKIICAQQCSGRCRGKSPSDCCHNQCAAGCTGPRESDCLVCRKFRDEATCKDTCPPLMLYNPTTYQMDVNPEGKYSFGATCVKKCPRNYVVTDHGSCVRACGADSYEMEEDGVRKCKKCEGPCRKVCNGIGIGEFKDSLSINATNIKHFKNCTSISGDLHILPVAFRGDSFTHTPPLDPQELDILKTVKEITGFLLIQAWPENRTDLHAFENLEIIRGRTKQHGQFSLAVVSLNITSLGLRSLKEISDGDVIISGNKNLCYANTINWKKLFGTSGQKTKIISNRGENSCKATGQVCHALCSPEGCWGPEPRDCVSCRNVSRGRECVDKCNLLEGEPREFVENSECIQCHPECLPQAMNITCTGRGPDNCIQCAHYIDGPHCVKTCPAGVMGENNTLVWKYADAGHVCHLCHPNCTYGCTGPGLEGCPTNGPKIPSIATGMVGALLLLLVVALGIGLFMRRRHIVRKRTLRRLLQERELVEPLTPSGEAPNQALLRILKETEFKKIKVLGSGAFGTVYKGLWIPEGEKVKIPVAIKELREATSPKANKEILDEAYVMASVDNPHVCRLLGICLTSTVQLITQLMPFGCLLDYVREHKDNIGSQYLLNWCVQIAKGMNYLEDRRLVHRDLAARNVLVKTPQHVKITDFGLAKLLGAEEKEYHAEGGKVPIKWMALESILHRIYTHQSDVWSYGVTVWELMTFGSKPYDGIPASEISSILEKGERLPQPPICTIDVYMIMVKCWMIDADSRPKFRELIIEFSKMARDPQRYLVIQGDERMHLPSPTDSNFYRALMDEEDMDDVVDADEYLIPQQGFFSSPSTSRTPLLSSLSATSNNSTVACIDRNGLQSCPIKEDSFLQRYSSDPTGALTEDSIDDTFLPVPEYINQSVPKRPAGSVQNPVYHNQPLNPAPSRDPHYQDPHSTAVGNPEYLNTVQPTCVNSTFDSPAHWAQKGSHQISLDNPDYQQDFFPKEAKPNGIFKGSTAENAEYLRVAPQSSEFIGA

IC50: 191 nM
SMILES: C=C(C)[C@H]1C=C2[C@H](C)CC[C@H](Cc3c(O)c(C=O)c4c(c3O)C(=O)CC(C)(C)O4)[C@@]2(C)CC1 [R14, Eucarbwenstols D]
